Results taken from the supplement of paper PMC10307832.

Legend:
Experiment in all cases: relative viability (nuclei count vs DMSO), 5 days (fraction); higher = more cells survive
Vorinostat + Dasatinib = compound: O=C(CCCCCCC(=O)Nc1ccccc1)NO [Vorinostat] + Cc1nc(Nc2ncc(C(=O)Nc3c(C)cccc3Cl)s2)cc(N2CCN(CCO)CC2)n1 [Dasatinib] (partner 0.075 µM)
Method in brief: (§1)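 Lung cancer cell lines were seeded in 1536-well plates and dosed by pin tool the next day, with either a single drug or a fixed anchor-drug dose combined with five library-drug doses (not always all listed) spaced in √10 steps. Five days later, one step fixed the cells and stained their nuclei (final 0.05% Triton X-100, 1% formaldehyde, 1 ug/ml Hoechst), and nuclei were counted on 4× images. Relative viability is the nuclei count in treated wells divided by the count in vehicle wells, and each value is the median of duplicate plates.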

Vorinostat + Linsitinib = compound: O=C(CCCCCCC(=O)Nc1ccccc1)NO [Vorinostat] + C[C@]1(O)C[C@@H](c2nc(-c3ccc4ccc(-c5ccccc5)nc4c3)c3c(N)nccn32)C1 [Linsitinib] (partner 1 µM)
Method in brief: as §1

Vorinostat + Tozasertib = compound: O=C(CCCCCCC(=O)Nc1ccccc1)NO [Vorinostat] + Cc1cc(Nc2cc(N3CCN(C)CC3)nc(Sc3ccc(NC(=O)C4CC4)cc3)n2)n[nH]1 [Tozasertib] (partner 0.1 µM)
Method in brief: as §1

Vorinostat + Decitabine = compound: O=C(CCCCCCC(=O)Nc1ccccc1)NO [Vorinostat] + Nc1ncn([C@H]2C[C@H](O)[C@@H](CO)O2)c(=O)n1 [Decitabine] (partner 2 µM)
Method in brief: as §1

Vorinostat + Palbociclib = compound: O=C(CCCCCCC(=O)Nc1ccccc1)NO [Vorinostat] + CC(=O)c1c(C)c2cnc(Nc3ccc(N4CCNCC4)cn3)nc2n(C2CCCC2)c1=O [Palbociclib] (partner 0.5 µM)
Method in brief: as §1

Row | Cell Line | relative viability (Vorinostat + Dasatinib; first compound 0.253 µM) | relative viability (Vorinostat + Dasatinib; first compound 0.8 µM) | relative viability (Vorinostat + Dasatinib; first compound 2.53 µM) | relative viability (Vorinostat + Dasatinib; first compound 8 µM) | relative viability (Vorinostat + Linsitinib; first compound 0.253 µM) | relative viability (Vorinostat + Linsitinib; first compound 0.8 µM) | relative viability (Vorinostat + Linsitinib; first compound 2.53 µM) | relative viability (Vorinostat + Linsitinib; first compound 8 µM) | relative viability (Vorinostat + Tozasertib; first compound 0.253 µM) | relative viability (Vorinostat + Tozasertib; first compound 0.8 µM) | relative viability (Vorinostat + Tozasertib; first compound 2.53 µM) | relative viability (Vorinostat + Tozasertib; first compound 8 µM) | relative viability (Vorinostat + Decitabine; first compound 0.253 µM) | relative viability (Vorinostat + Decitabine; first compound 0.8 µM) | relative viability (Vorinostat + Decitabine; first compound 2.53 µM) | relative viability (Vorinostat + Decitabine; first compound 8 µM) | relative viability (Vorinostat + Palbociclib; first compound 0.253 µM) | relative viability (Vorinostat + Palbociclib; first compound 0.8 µM) | relative viability (Vorinostat + Palbociclib; first compound 2.53 µM) | relative viability (Vorinostat + Palbociclib; first compound 8 µM)
1 | H3255 | 0.396 | 0.342 | 0.309 | 0.301 | 1.01 | 0.941 | 0.589 | 0.247 | 0.705 | 0.525 | 0.277 | 0.219 | 0.839 | 0.607 | 0.427 | 0.173 | 0.349 | 0.337 | 0.303 | 0.232
2 | A-427 | 0.823 | 0.565 | 0.332 | 0.133 | 1.11 | 1.08 | 0.875 | 0.17 | 0.182 | 0.168 | 0.134 | 0.0919 | 0.551 | 0.557 | 0.434 | 0.166 | 0.522 | 0.496 | 0.331 | 0.227
3 | NCI-H1944 | 0.204 | 0.184 | 0.178 | 0.174 | 1.21 | 0.948 | 0.697 | 0.207 | 0.239 | 0.221 | 0.132 | 0.0956 | 0.397 | 0.364 | 0.259 | 0.141 | 0.31 | 0.272 | 0.176 | 0.118
4 | NCI-H358 | 0.182 | 0.227 | 0.0991 | 0.0768 | 0.969 | 0.83 | 0.219 | 0.156 | 0.128 | 0.11 | 0.0949 | 0.0726 | 0.202 | 0.196 | 0.105 | 0.091 | 0.139 | 0.167 | 0.101 | 0.0793
5 | NCI-H520 | 0.219 | 0.206 | 0.179 | 0.17 | 1.15 | 0.841 | 0.293 | 0.12 | 0.422 | 0.37 | 0.207 | 0.209 | 0.581 | 0.474 | 0.297 | 0.157 | 0.351 | 0.31 | 0.19 | 0.133
6 | ABC-1 | 0.531 | 0.41 | 0.221 | 0.131 | 1 | 0.505 | 0.331 | 0.106 | 0.203 | 0.198 | 0.18 | 0.112 | 1.33 | 0.896 | 0.421 | 0.158 | 0.696 | 0.563 | 0.344 | 0.137
7 | NCI-H1437 | 0.459 | 0.183 | 0.152 | 0.137 | 1.19 | 0.789 | 0.138 | 0.0938 | 0.371 | 0.338 | 0.18 | 0.104 | 0.55 | 0.454 | 0.285 | 0.235 | 0.303 | 0.265 | 0.172 | 0.124
8 | NCI-H2126 | 0.608 | 0.566 | 0.216 | 0.158 | 0.581 | 0.68 | 0.456 | 0.224 | 0.731 | 0.444 | 0.212 | 0.171 | 0.58 | 0.533 | 0.332 | 0.19 | 0.396 | 0.367 | 0.314 | 0.194
9 | NCI-H1993 | 0.655 | 0.626 | 0.544 | 0.41 | 0.836 | 0.861 | 0.575 | 0.614 | 0.633 | 0.608 | 0.489 | 0.457 | 0.704 | 0.65 | 0.465 | 0.16 | 0.715 | 0.775 | 0.499 | 0.362
10 | NCI-H460 | 0.577 | 0.423 | 0.134 | 0.0239 | 0.902 | 0.544 | 0.0315 | 0.0069 | 0.593 | 0.0486 | 0.0314 | 0.0259 | 0.526 | 0.377 | 0.0496 | 0.0202 | 0.146 | 0.0944 | 0.0356 | 0.011
11 | NCI-H838 | 0.378 | 0.442 | 0.368 | 0.186 | 1.19 | 1.08 | 0.459 | 0.172 | 0.263 | 0.227 | 0.172 | 0.111 | 0.542 | 0.597 | 0.325 | 0.198 | 0.262 | 0.218 | 0.183 | 0.116
12 | EKVX | 0.535 | 0.528 | 0.236 | 0.179 | 1.14 | 1.04 | 0.515 | 0.141 | 0.39 | 0.275 | 0.194 | 0.11 | 0.31 | 0.324 | 0.194 | 0.133 | 0.401 | 0.398 | 0.199 | 0.125
13 | HCC-78 | 0.371 | 0.398 | 0.211 | 0.2 | 0.547 | 0.238 | 0.135 | 0.107 | 0.384 | 0.268 | 0.167 | 0.2 | 0.672 | 0.634 | 0.355 | 0.236 | 0.467 | 0.518 | 0.438 | 0.344
14 | NCI-H1355 | 0.825 | 0.503 | 0.298 | 0.169 | 0.917 | 0.707 | 0.451 | 0.139 | 0.529 | 0.315 | 0.188 | 0.129 | 0.393 | 0.354 | 0.253 | 0.143 | 0.411 | 0.356 | 0.214 | 0.138
15 | LK-2 | 0.36 | 0.188 | 0.114 | 0.123 | 0.58 | 0.328 | 0.143 | 0.0894 | 0.179 | 0.178 | 0.157 | 0.125 | 0.267 | 0.201 | 0.089 | 0.064 | 0.724 | 0.585 | 0.104 | 0.0605
16 | HOP-62 | 0.888 | 0.501 | 0.225 | 0.0813 | 1.17 | 0.769 | 0.528 | 0.0603 | 0.405 | 0.32 | 0.116 | 0.08 | 0.17 | 0.209 | 0.169 | 0.0871 | 0.492 | 0.409 | 0.177 | 0.0765
